Laboratory results reported in paper PMC5975062 (Alzheimer's & Dementia : Translational Research & Clinical …, 2015).

Columns and labels:
[1] = Phase 1 plasma pharmacokinetics after single and multiple oral doses; type: in vivo, human; conditions: for AUC(0-t) / half-life / Tmax: human, plasma, oral; for AUC(0-t): plasma AUC0–12 h
[2] = Phase 1 CSF pharmacokinetics; type: in vivo, human; conditions: for concentration at 12 h: Min (C 12 h)
[3] = 50 mg bid solution, fasted, nonelderly, day 11, geo mean (CV%)

## CCCOc1ccc([C@H]2CNC(=O)N2c2ccc3[nH]cnc3c2)cc1 [PQ912]
[1]; 100 mg, 100 mg bid solution, fed, nonelderly, day 11, geo mean (CV%)
  AUC(0-t): 969 ng·h/mL
[1]; 100 mg, plasma t1/2 (apparent terminal), 100 mg bid solution, fed, nonelderly, day 11, geo mean (CV%)
  half-life: 3.46 h
[1]; 100 mg, plasma t1/2,eff (2–12 h postdose), 100 mg bid solution, fed, nonelderly, day 11, geo mean (CV%)
  half-life: 2.44 h
[1]; 100 mg, plasma tmax, 100 mg bid solution, fed, nonelderly, day 11, median (min–max)
  Tmax: 0.75 h
[1]; 200 mg, 200 mg bid capsule, fasted, elderly, day 7, geo mean (CV%)
  AUC(0-t): 3890 ng·h/mL
[1]; 200 mg, plasma t1/2 (apparent terminal), 200 mg bid capsule, fasted, elderly, day 7, geo mean (CV%)
  half-life: 7.55 h
[1]; 200 mg, plasma t1/2,eff (2–12 h postdose), 200 mg bid capsule, fasted, elderly, day 7, geo mean (CV%)
  half-life: 3.08 h
[1]; 200 mg, plasma tmax, 200 mg bid capsule, fasted, elderly, day 7, median (min–max)
  Tmax: 1 h
[1]; 500 mg, 500 mg bid capsule, fed, nonelderly, day 11, geo mean (CV%)
  AUC(0-t): 9300 ng·h/mL
[1]; 500 mg, plasma t1/2 (apparent terminal), 500 mg bid capsule, fed, nonelderly, day 11, geo mean (CV%)
  half-life: 6.82 h
[1]; 500 mg, plasma t1/2,eff (2–12 h postdose), 500 mg bid capsule, fed, nonelderly, day 11, geo mean (CV%)
  half-life: 3.01 h
[1]; 500 mg, plasma tmax, 500 mg bid capsule, fed, nonelderly, day 11, median (min–max)
  Tmax: 3 h
[1]; mean plasma tmax, single 10–400 mg solution, fasted
  Tmax: 0.5 h
[1]; plasma t1/2,eff, after bid doses
  half-life: 2 to 3 h
[1]; plasma tmax, generally observed, all formulations and doses
  Tmax: 0.5 to 1.5 h
[1]; plasma tmax, repeated dosing, compared with CSF
  Tmax: 0.5 to 1 h
[1]; terminal plasma t1/2, single doses, across dose range
  half-life: 2 to 8 h
[1]; multiple bid dosing, morning trough plasma concentrations
  time to steady-state: ≤ 2 days
[1]; repeated bid dosing ≥50 mg, steady state
  plasma trough (12 hours postdose) lower than peak levels: up to 61 fold
[1]; single doses 200–1800 mg
  increase in AUC with ninefold increase in dose: 24 fold
[2]; 20 mg bid solution, fasted, nonelderly, day 11, estimated as plasma AUC × 0.05
  CSF AUC(0–12 h): 6 ng·h/mL
[2]; 20 mg bid solution, fasted, nonelderly, day 11, estimated, mean × 1.6
  CSF concentration, Max (C 3 h): 0.8 ng/mL
[2]; [3]
  CSF AUC(0–12 h): 17.3 (34.8) ng.h/mL
  CSF concentration, Max (C 3 h): 2.32 (34.5) ng/mL
[2]; 100 mg bid solution, fed, nonelderly, day 11, geo mean (CV%)
  CSF AUC(0–12 h): 44.7 (27.2) ng.h/mL
[2]; 200 mg bid capsule, fasted, elderly, day 7, estimated as plasma AUC × 0.05
  CSF AUC(0–12 h): 195 ng·h/mL
[2]; 200 mg bid capsule, fasted, elderly, day 7, estimated, mean × 1.6
  CSF concentration, Max (C 3 h): 25.9 ng/mL
[2]; 200 mg bid solution, fasted, nonelderly, day 11, estimated as plasma AUC × 0.05
  CSF AUC(0–12 h): 91.7 ng·h/mL
[2]; 300 mg bid capsule, fasted, elderly, day 7, estimated, mean × 1.6
  CSF concentration, Max (C 3 h): 37.7 ng/mL
[2]; 300 mg bid capsule, fasted, elderly, day 7, geo mean (CV%)
  CSF AUC(0–12 h): 275 (40.7) ng.h/mL
[2]; 400 mg bid capsule, fasted, nonelderly, day 11, geo mean (CV%)
  CSF AUC(0–12 h): 236 (25.0) ng.h/mL
[2]; 500 mg bid capsule, fed, nonelderly, day 11, estimated, mean × 1.6
  CSF concentration, Max (C 3 h): 62.0 ng/mL
[2]; 500 mg bid tablet, fasted, elderly, day 11, estimated, mean × 1.6
  CSF concentration, Max (C 3 h): 79.0 ng/mL
[2]; 500 mg bid tablet, fasted, elderly, day 11, geo mean (CV%)
  CSF AUC(0–12 h): 530 (36.6) ng.h/mL
[2]; 800 mg bid tablet, fasted, elderly, day 11, estimated as plasma AUC × 0.05
  CSF AUC(0–12 h): 1230 ng·h/mL
[2]; 800 mg bid tablet, fasted, elderly, day 11, estimated, mean × 1.6
  CSF concentration, Max (C 3 h): 163.7 ng/mL
[2]; human, CSF, oral, 100 mg, CSF concentration, Max (C 3 h), 100 mg bid solution, fed, nonelderly, day 11, geo mean (CV%)
  concentration at 3 h: 6.02 ng/mL
[2]; human, CSF, oral, 100 mg, CSF concentration, 100 mg bid solution, fed, nonelderly, day 11, geo mean (CV%)
  concentration at 12 h: 1.92 ng/mL
[2]; human, CSF, oral, 100 mg, CSF t1/2, 100 mg bid solution, fed, nonelderly, day 11, geo mean (CV%)
  half-life: 6.38 h
[2]; human, CSF, oral, 200 mg, CSF concentration, 200 mg bid capsule, fasted, elderly, day 7, estimated, mean × 0.53
  concentration at 12 h: 8.6 ng/mL
[2]; human, CSF, oral, 500 mg, CSF concentration, 500 mg bid capsule, fed, nonelderly, day 11, estimated, mean × 0.53
  concentration at 12 h: 20.5 ng/mL
[2]; repeated bid dosing ≥50 mg
  CSF trough lower than peak levels: approximately threefold lower
[2]; single oral solution, CSF sampling 1, 1.5 and 3 hours
  time of highest concentrations in the CSF: 3 h
